Where a name gives a salt, the structure may show the parent alone. Read-outs that look alike come from different tables or passages of the source.
Test system: amyloid β production in transfected H4 (human neuroglioma) cells stably expressing APP constructs
Test: In vitro cell-based assay of inhibitors of amyloid β production (ELISA)
Settings: amyloid β in medium by ELISA, read-out: ACTIVITY (IC50, inhibition of amyloid β production)
Procedure, shortened: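 Aβ secreted into the medium was determined by a two-antibody ELISA specific for the Aβ C-terminus, calibrated with known Aβ amounts. Before that, compounds (10-100 μM initially) were left on the cells for roughly 16 hours.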

[1] = Homo sapiens, 16 h, transfected H4 cells stably expressing APP, approximately 16 hours incubation
[2] = transfected H4 cells stably expressing APP constructs, approximately 16 hours incubation
[3] = transfected H4 cells stably expressing APP, approx. 16 h incubation

Compound: O=C(c1ccc(OC(F)(F)F)cc1)N1CCCCC1CCOc1ccccc1CN(c1cc(F)ccc1F)S(=O)(=O)c1ccc(Cl)cc1 (centres unmarked) [Example 1033, 4-chloro-N-(2,5-difluorophenyl)-N-[2-(2-{1-[4-(trifluoromethoxy)benzoyl]-2-piperidinyl}ethoxy)benzyl]benzenesulfonamide]
- IC50 [1]: > 500 nM

Compound: C[C@H](CCCS(C)(=O)=O)N(c1cc(Cl)ccc1CO)S(=O)(=O)c1ccc(Cl)cc1 [Example 1225, 4-chloro-N-[5-chloro-2-(hydroxymethyl)phenyl]-N-[1(R)-methyl-(4-methylsulfonyl)butyl]benzenesulfonamide]
- IC50 [2]: ≤ 25 nM

Compound: C[C@H](CC[S+]([O-])CC(=O)O)N(c1cc(Cl)ccc1Cl)S(=O)(=O)c1ccc(Cl)cc1 (stereo partly drawn) [Example 1196, (6R)-6-[(2,5-dichlorophenyl)-[(4-chlorophenyl)sulfonyl]-amino]-3-thioheptanoic acid, 3-oxide]
- IC50 [2]: > 500 nM

Compound: C[C@H](CCCS(=O)(=O)N(CCCn1ccnc1)CC1CC1)N(c1cc(Cl)ccc1CO)S(=O)(=O)c1ccc(Cl)cc1 [Example 1236, 4-chloro-N-[5-chloro-2-(hydroxymethyl)phenyl]-N-[4-[N-(cyclopropylmethyl)-N-[3-(1H-imidazol-1-yl)-propyl]aminosulfonyl]-1(R)-methylbutyl]benzenesulfonamide]
- IC50 (Homo sapiens, 16 h, transfected H4 cells stably expressing APP constructs, approximately 16 hours incubation): 100 to 500 nM

Compound: CCS(=O)(=O)CCC[C@@H](C)N(c1cc(Cl)ccc1Cl)S(=O)(=O)c1ccc(Cl)cc1 [Example 1164, 4-chloro-N-[2,5-dichlorophenyl]-N-[1(R)-methyl-(4-ethylsulfonyl]butyl]benzenesulfonamide]
- IC50 [2]: ≤ 25 nM

Compound: 2,4-dichloro-N-{3-[2-(1-{[(4-chlorophenyl)sulfonyl]-2,5-difluoroanilino}ethyl)phenoxy]propyl}-5-fluorobenzamide [Example 682]
- IC50 [3]: 100 to 500 nM

Compound: O=S(=O)(c1ccc(Cl)cc1)N(Cc1ccccc1OCCC1CCCCN1Cc1cc(F)cc(F)c1)c1cc(F)ccc1F (centres unmarked) [Example 746, 4-chloro-N-(2-{2-[1-(3,5-difluorobenzyl)-2-piperidinyl]ethoxy}benzyl)-N-(2,5-difluorophenyl)benzenesulfonamide]
- IC50 (Homo sapiens, 16 h, transfected H4 cells stably expressing APP, approx. 16 h incubation): 100 to 500 nM

Compound: C[C@H](C(=O)NCCCCc1ccccc1)N(c1cc(Cl)ccc1F)S(=O)(=O)c1ccc(Cl)cc1 [Example 1324]
- IC50 (Homo sapiens, 16 h, transfected H4 cells expressing APP, approximately 16 hours incubation): > 500 nM

Compound: CSCCC[C@@H](C)N(c1cc(Cl)ccc1CO)S(=O)(=O)c1ccc(Cl)cc1 [Example 1228, 4-chloro-N-[5-chloro-2-(hydroxymethyl)phenyl]-N-[1(R)-methyl-(4-methylthio)butyl]benzenesulfonamide]
- IC50 [2]: ≤ 25 nM

Compound: N-{3-[2-({[(4-chlorophenyl)sulfonyl]-2,5-difluoroanilino}methyl)phenoxy]propyl}-3,4,5-trimethoxy-N-methylbenzamide [Example 989]
- IC50 (transfected H4 cells stably expressing APP, approximately 16 hours incubation): > 500 nM

Compound: O=S(=O)(c1ccc(Cl)cc1)N(Cc1cc(Cl)ccc1C#CCCN1CCCCC1)c1ccccc1 [Example 990, 4-chloro-N-{5-chloro-2-[4-(1-piperidinyl)-1-butynyl]benzyl}-N-phenylbenzenesulfonamide hydrochloride]
- IC50 [1]: > 500 nM

Compound: 3-[2-((1R)-1-{[(4-chlorophenyl)sulfonyl]-2,5-difluoroanilino}ethyl)phenyl]propyl benzyl(methyl)carbamate [Example 763]
- IC50 [3]: 100 to 500 nM

Compound: 2,4-dichloro-N-{3-[2-(1-{[(4-chlorophenyl)sulfonyl]-2,5-difluoroanilino}ethyl)phenoxy]propyl}-N-methylbenzenesulfonamide [Example 647]
- IC50 [3]: 100 to 500 nM

Compound: O=C(c1ccc(F)cc1)N1CCCCC1CCOc1ccccc1CN(c1cc(F)ccc1F)S(=O)(=O)c1ccc(Cl)cc1 (centres unmarked) [Example 946, 4-chloro-N-(2,5-difluorophenyl)-N-(2-{2-[1-(4-fluorobenzoyl)-2-piperidinyl]ethoxy}benzyl)benzenesulfonamide]
- IC50 [1]: > 500 nM

Reference: US6967196B1, “Sulfonamide compounds and uses thereof” (Bristol-Myers Squibb Company, priority 1999, dated 2005)
